ChEMBL document CHEMBL4219204, “Structure-based design and discovery of potent and selective KDM5 inhibitors” (Bioorg Med Chem Lett, 2018)

Target: T1, Lysine-specific demethylase 2B (Homo sapiens, UniProt Q8NHM5)
T1 sequence (Q8NHM5 whole entry): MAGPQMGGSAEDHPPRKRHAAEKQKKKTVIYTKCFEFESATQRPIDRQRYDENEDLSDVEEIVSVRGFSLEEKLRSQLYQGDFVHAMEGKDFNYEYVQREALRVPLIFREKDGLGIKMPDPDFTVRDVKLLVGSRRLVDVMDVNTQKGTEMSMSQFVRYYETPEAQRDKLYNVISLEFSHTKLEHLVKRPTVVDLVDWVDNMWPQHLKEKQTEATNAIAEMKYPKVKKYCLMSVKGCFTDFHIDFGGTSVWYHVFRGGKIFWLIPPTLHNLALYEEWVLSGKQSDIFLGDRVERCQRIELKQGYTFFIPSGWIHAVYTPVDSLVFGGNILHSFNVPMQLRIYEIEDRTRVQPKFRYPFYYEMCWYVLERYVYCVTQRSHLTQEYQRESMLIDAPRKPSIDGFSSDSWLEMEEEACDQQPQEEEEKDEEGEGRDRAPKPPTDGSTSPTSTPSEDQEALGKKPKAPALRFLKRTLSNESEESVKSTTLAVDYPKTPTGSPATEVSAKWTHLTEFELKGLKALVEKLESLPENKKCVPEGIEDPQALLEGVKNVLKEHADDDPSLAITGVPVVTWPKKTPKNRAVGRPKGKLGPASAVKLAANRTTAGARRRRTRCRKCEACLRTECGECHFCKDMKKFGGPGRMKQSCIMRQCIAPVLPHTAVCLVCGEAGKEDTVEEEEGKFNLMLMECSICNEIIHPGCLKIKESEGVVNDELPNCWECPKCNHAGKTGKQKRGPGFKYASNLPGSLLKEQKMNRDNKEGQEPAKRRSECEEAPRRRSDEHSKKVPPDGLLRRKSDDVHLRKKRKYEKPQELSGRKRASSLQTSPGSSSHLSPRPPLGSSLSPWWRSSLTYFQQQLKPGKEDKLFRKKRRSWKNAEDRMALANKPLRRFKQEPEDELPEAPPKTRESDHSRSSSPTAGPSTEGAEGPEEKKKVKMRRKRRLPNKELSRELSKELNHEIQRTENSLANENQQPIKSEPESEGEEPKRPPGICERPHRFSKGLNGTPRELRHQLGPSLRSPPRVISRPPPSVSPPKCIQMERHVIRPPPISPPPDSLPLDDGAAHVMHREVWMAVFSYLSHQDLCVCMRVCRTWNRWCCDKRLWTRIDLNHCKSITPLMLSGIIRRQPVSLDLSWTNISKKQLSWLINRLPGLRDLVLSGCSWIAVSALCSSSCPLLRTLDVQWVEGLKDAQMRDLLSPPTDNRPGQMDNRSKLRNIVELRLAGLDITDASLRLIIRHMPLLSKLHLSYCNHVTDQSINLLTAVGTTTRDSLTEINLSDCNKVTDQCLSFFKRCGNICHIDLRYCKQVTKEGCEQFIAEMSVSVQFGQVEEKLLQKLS
Experiment: Inhibition of KDM2B (unknown origin)

IC50: 630 nM
Compound: Cc1cc(Cl)ccc1COc1ccnn1-c1cc(C(=O)O)ccn1
